Key:
[1] = tested on: airway epithelial cell monolayer (SAEC at ALI); assay: Air-liquid interface culture: IL-13-induced loss of cilia and goblet cell metaplasia (H&E, PAS, β-tubulin and Muc5AC immunostaining); assay type: cell-based, human
Procedure: FIGS. 4A-4B. AR inhibition prevents IL-13-induced loss of cilia and β-tubulin in airway epithelial cell monolayer. Approximately 8.5×10^4 SAEC were seeded per 12 mm diameter PET transparent insert and cultured for 7 days in differentiation media supplied from both lower and upper sides followed by culture on ALI for 11 days for differentiation into ciliated cells. The monolayer was treated with AR inhibitor for overnight and stimulated with IL-13 for 48 h. The monolayers on the membrane inserts were fixed for 24 h in z-fix (10% buffered formalin with zinc) at 4° C., paraffin embedded and […] sections were cut. (A) The H&E stained sections were examined under the light microscope; magnification 400×. […] (B) Immunohistochemistry using β-tubulin antibodies was performed on the sections. Dark brown staining in the monolayer corresponds to cilia axoneme β-tubulin. Arrows show loss of β-tubulin as the ciliated cells transform into goblet cells. A representative photomicrograph has been shown (n=4); magnification 400×. FIGS. 5A-5B. AR inhibition prevents IL-13-induced goblet cell metaplasia and expression of Muc5AC in airway epithelial monolayer. (A) The well-differentiated airway epithelial cells at air-liquid interface (ALI) were incubated with IL-13 for 48 h without or with AR inhibitor, fidarestat. The monolayer was fixed as described and immunohistochemistry using Muc5AC antibodies was performed on the sections. A representative photomicrograph is shown (n=4); magnification 400×. […] (C) The airway epithelial monolayer was incubated with IL-13 submerged in basal medium for 48 h in the absence and presence of AR inhibitor, fidarestat. The culture medium was collected from the top chamber and utilized for determination of Muc5AC by an ELISA, (n=4); *p<0.005 vs Control; **p<0.01 vs IL-13. For air-liquid interface (ALI) culture, SAEC were seeded at 8.5×10^4 cells/12-mm-diameter PET transparent insert with […] pores (12-well millicell culture insert; Millipore) and pre-coated with rat tail collagen type-1 (Sigma-Aldrich). The cells were grown submerged in the differentiation medium as described earlier by Zhen et al. (Am J Respir Cell Mol Biol 36: 244-253, 2007). The differentiation medium contained a 1:1 mixture of DMEM and small airway epithelial growth medium supplemented as described above, except that gentamycin sulfate, amphotericin B, and triiodothyronine were replaced with 1% penicillin/streptomycin, and 50 nM all-trans retinoic acid. The SAEC were maintained submerged for the first 7 days, after which the apical medium was removed and an air-liquid interface culture was established. […] The stained sections were analyzed and representative fields were photographed using a Photometrix CoolSNAP Fx camera mounted on a NIKON Eclipse TE 200 UV microscope. […]

[2] = tested on: STAT-6; assay: Western blot of STAT-6 phosphorylation in airway epithelial monolayer; assay type: cell-based, human; details: ALI monolayer, AR inhibitor 24 h prior to IL-13
Procedure: FIG. 7. AR inhibition prevents IL-13-induced phosphorylation of JAK-1, ERK1/2 and STAT-6 in airway epithelial monolayer. The ciliated monolayer of airway cells at ALI was treated with AR inhibitor for 24 h and stimulated with IL-13 for different time periods as indicated. At the end of incubation, cells were lysed and cell lysate was subjected to western blotting using antibodies against phosphorylated and nonphosphorylated JAK-1, ERK1/2 and STAT-6 to analyze the activation of these signaling proteins. A representative blot is shown (n=4). #p<0.001 vs Control; *p<0.01 and **p<0.001 vs IL-13. For air-liquid interface (ALI) culture, SAEC were seeded at 8.5×10^4 cells/12-mm-diameter PET transparent insert with […] pores (12-well millicell culture insert; Millipore) and pre-coated with rat tail collagen type-1 (Sigma-Aldrich). The cells were grown submerged in the differentiation medium as described earlier by Zhen et al. (Am J Respir Cell Mol Biol 36: 244-253, 2007). […] Protein levels were determined using Bradford reagent (Biorad, Hercules, Calif.). […] The blots were then washed, exposed to HRP-conjugated secondary antibodies (1:5,000 dilution) for 1 h, and the antigen-antibody complex was detected by enhanced chemiluminescence (Amersham Pharmacia Biotech, Piscataway, N.J., USA). […]

NC(=O)[C@@H]1C[C@]2(NC(=O)NC2=O)c2cc(F)ccc2O1 [fidarestat, (2S,4S)-2-aminoformyl-6-fluoro-spiro[chroman-4,4′-imidazolidine]-2′,5′-dione] was tested, and the “decrease in number of Muc5AC positive cells” value ([1]; IL-13 48 h, Muc5AC immunostaining) was about 70%, the “ciliated morphology (β-tubulin immunostaining) after IL-13” value ([1]; fidarestat 10 μM overnight, IL-13 25 ng/ml 48 h) was “preserved the ciliated morphology” and the “differentiation of airway cells into goblet cells (PAS staining)” value ([1]; inhibitor added prior to IL-13 challenge, 48 h, data not shown) was “prevented the airway cells from differentiating into goblet cells”. For the same molecule, the “toxic effects of AR inhibitor alone on monolayer of ciliated cells” value ([1]; inhibitor alone, no IL-13) was “no toxic effects” and the “IL-13-induced phosphorylation of STAT-6” value [2] was “decreased significantly”.

Source: patent publication US8785483B2, “Methods for treating COPD” (The Board of Regents of the University of Texas System, priority 2010, dated 2014)
